The results in this text go back to patent publication US8518956B2, “1-(1-(2-ethoxyethyl)-3-ethyl-7-(4-methylpyridin-2-ylamino)-1H-pyrazolo[4,3-d]pyrimidin-5-yl) piperidine-4-carboxylic acid and salts thereof” (priority 2005, dated 2013).

SMILES strings stand for the structures.

The target in the assay is T1, PDE11 enzyme (Homo sapiens, UniProt Q9HCR9, DUP921-921).
T1 construct: FLAG (N); made in house; host or cells: Sf9 insect cells (baculovirus, pFastBac)
T1 sequence (Q9HCR9 with tags, fused parts or gaps DUP921-921 limits assumed): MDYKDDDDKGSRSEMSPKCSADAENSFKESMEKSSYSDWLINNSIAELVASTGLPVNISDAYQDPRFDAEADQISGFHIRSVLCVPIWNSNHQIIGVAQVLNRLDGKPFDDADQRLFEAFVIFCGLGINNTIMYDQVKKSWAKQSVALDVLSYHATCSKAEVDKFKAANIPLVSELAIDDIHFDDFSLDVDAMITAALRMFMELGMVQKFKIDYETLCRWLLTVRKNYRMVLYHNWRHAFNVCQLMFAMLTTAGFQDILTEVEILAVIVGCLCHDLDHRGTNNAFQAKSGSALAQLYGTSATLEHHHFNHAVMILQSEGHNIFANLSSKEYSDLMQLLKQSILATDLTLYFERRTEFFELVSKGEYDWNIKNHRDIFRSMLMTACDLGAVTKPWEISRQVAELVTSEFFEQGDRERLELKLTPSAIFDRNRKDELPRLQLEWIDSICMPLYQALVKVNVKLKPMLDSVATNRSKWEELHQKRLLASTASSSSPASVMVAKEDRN
Put plainly: Method 3A: Alternative Human Recombinant PDE11 Enzyme Inhibition Scintillation Proximity Assay (SPA). Conditions: Table F, WO2004096810 examples. The class given is biochemical. As for the experimental part: Incubate at 27° C. with 220 rpm shaking for 48 hours. Harvest the infected cells by pelleting at 2000 rpm for 10 minutes at 4° C. Store the infected cell pellet at −80° C. until ready for purification. Resuspend the thawed cell pellets to 1×10^7 cells/ml (=20 ml buffer consisting of 20 mM Hepes (pH7.2), 1 mM EDTA, 20 mM sucrose, 150 mM NaCl and protease inhibitor tablets). Mix thoroughly and allow to stand on ice for 10 minutes. Sonicate for 5×5 seconds, on ice. Spin the mixture at 12,000 rpm for 10 minutes at 4° C. in SS34. Store the insoluble pellet at −80° C., and proceed to the purification of the soluble material. • (b) Purification: Prepare the column (1.0 cm diameter, Kontes) by rinsing the empty column twice with TBS. Then mix beads (Anti-FLAG M2 Agarose, Sigma) with TBS and add to the column—allow the beads to settle. Wash the column with 3 column volumes of 0.1M glycine (pH3.5). […] Apply the extract to the column and allow the extract to enter by gravity flow. Reapply the flow-through. Wash the column with 15 column volumes of TBS. Elute the protein with 5×1 ml aliquots of FLAG peptide (Sigma) (i.e., 100 ug/ml in TBS). Elute the remaining protein with 1 ml 0.1M glycine, and immediately add 25 ul 1M Tris pH8 to neutralize. Method 3A: Alternative Human Recombinant PDE11 Enzyme Inhibition Scintillation Proximity Assay (SPA)
Background: SPA uses beads or plates that emit light when radiolabelled molecules are held near them.
As a reminder, the IC50 is the concentration that gives 50% inhibition. Regarding `Cc1ccnc(Nc2nc(N3CCC(C(=O)O)CC3)nc3c(C)nn(CCOCC(F)(F)F)c23)c1` [WO2004096810 Example 261], the IC50 was determined as 585 nM.

On to `Cc1cc(Nc2nc(N3CCC(C(=O)O)CC3)nc3c(C)nn(CCOCC(F)(F)F)c23)ncn1` [WO2004096810 Example 262], for which the IC50 is 608 nM.

For `CCc1nn(CCOCC(F)(F)F)c2c(Nc3cc(C)ncn3)nc(N3CCC(C(=O)O)CC3)nc12` [WO2004096810 Example 263], the IC50 amounted to 384 nM.
